Test results: PMC4360945, “In silico discovery and validation of potent small-molecule inhibitors targeting the activation function 2 site of human oestrogen receptor α” (Breast Cancer Research : BCR, 2015)
Where “and” joins values, the source holds several entries; their conditions need not be identical. Identical values can stand only once. Entries after “also recorded” stand apart in the source; their conditions may differ.

Legend:
[1] = target: T1, ERα AF2 site (GST-tagged ER-LBD) (Homo sapiens, UniProt P03372); assay: TR-FRET ERα coactivator (PGC-1α peptide) displacement assay; assay type: biochemical
T1 construct: glutathione S-transferase (GST)-tagged ER-LBD (7.25 nM); purchased Life Technologies PV4544
T1 sequence (P03372 311-547 limits assumed): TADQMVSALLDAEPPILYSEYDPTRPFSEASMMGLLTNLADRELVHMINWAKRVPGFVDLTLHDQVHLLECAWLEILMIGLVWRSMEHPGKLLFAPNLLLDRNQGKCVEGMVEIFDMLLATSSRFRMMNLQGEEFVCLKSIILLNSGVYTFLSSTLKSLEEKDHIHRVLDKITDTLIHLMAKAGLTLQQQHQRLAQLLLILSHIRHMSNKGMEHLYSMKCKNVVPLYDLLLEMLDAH
Method: Peptide displacement was assessed with the LanthaScreen TR-FRET ER Alpha Coactivator Assay kit (PV4544; Life Technologies) as per the instructions of the manufacturer. The compounds were tested in the range of 0.1 to 50 μM, and cold PGC-1α was added at threefold dilutions ranging from 1.8 to 50 μM.
Briefly, a twofold serial dilution of the test compounds was prepared at 100× final concentration in DMSO. The compounds were diluted 50-fold in complete assay buffer (assay buffer containing 5 mM dithiothreitol) to get a 2× final concentration and 2% DMSO. […] Ten microlitres of the diluted test compounds were added to a black, flat-bottomed, 384-well plate, followed by addition of 5 μl of the 4× ER-LBD mix.
Tb-labelled anti-GST antibody indirectly labels the ERα LBD by binding to a GST tag on the protein. […] The close proximity of fluorescein-PGC-1α to the terbium-labelled antibody causes an increase in the TR-FRET signal.

[2] = target: T2, ERα LBD (Homo sapiens, UniProt P03372); assay: Bio-layer interferometry assay; assay type: binding; conditions: 3 to 100 μM
T2 construct: ERα LBD (peptides 302 to 552); made in house; host or cells: Escherichia coli BL21
T2 sequence (P03372 302-552): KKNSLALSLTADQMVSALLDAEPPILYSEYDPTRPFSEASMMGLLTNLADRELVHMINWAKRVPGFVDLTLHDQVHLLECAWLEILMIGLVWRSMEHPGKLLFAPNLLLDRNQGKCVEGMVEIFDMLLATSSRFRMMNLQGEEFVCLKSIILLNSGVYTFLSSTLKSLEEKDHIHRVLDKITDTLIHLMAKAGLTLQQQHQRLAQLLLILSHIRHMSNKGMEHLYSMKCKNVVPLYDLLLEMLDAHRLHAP
Excerpt: The direct reversible interaction between small molecules and the ER-α was quantified by BLI using an Octet RED apparatus (Pall ForteBio, Menlo Park, CA, USA). The LDB of the biotinylated oestrogen receptor-alpha (bERα) was produced in situ with AviTag technology (Avidity, Aurora, CO, USA). […] A six-residue histidine tag was incorporated at the C-terminus of the ERα LBD for purification of the protein. […] The bacteria were then lysed by sonication, and the resulting lysate was purified by immobilised metal ion affinity chromatography with nickel agarose beads and cation exchange chromatography (HiTrap SP; GE Healthcare Life Sciences, Pittsburgh, PA, USA). […] The compounds were dissolved in the assay buffer in a twofold dilution series ranging from 3.1 to 100 μM.
The ERα LBD was biotinylated on the AviTag by a biotin ligase expressed by the bacterial cells cotransformed with the biotin ligase plasmid pBirACm. The bERα LBD was purified by nickel-affinity chromatography and immobilised on streptavidin-coated biosensor tips. The interaction between small molecule and protein was measured in real time as a shift in the interference pattern of the incident light. A response profile was generated on the Octet RED system.

[3] = system: MCF7 cells; assay: MTS assay, MCF7; assay type: cell-based, human; conditions: MCF7, 96 h, 1 nM E2; read-out: IC50, growth inhibition
Method: (§1) Cells were seeded in 96-well plates at a density of 5 × 10^3 cells/well. MCF7, […]-MB-453 and HeLa cells were seeded in their respective media. […] After 96 hours, 30 μl of MTS reagent (CellTiter 96 AQueous One Solution Cell Proliferation Assay reagent; Promega) were added and incubated for 90 minutes at 37°C in 5% CO2. The production of formazan was measured at 490 nm.

[4] = system: TamR3 cells; assay: MTS assay, TamR3; assay type: cell-based, human
Method: as §1

[5] = system: TamR6 cells; assay: MTS assay, TamR6; assay type: cell-based, human
Method: as §1

[6] = system: pS2, cathepsin D and CDC2 mRNA; assay: Quantitative RT-PCR of oestrogen-responsive genes in MCF7 cells; assay type: cell-based, human; conditions: MCF7, 24 h
Method: mRNA levels were analysed by quantitative RT-PCR (qRT-PCR). For this purpose, serum-starved MCF7 cells were seeded onto six-well plates at a density of 6 × 10^5 cells/well. […] RNA was isolated after 24 hours with TRIzol reagent (Life Technologies) and purified with the RNeasy Mini Kit (QIAGEN, Valencia, CA, USA). The purified mRNA was quantified using a NanoDrop spectrophotometer (NanoDrop, Wilmington, DE, USA). RNA (0.5 μg) was reverse-transcribed using the iScript synthesis kit (Bio-Rad Laboratories, Hercules, CA, USA). cDNA product (100 ng) was added to the primer mix. The final concentration of the primers was 5 pM. The sequences of the primers used in the qRT-PCR experiments were as follows: pS2, forward [NT] and reverse [NT]; cathepsin D, forward [NT] and reverse [NT]; CDC2, forward [NT] and reverse [NT]; glyceraldehyde 3-phosphate dehydrogenase (GAPDH), forward [NT] and reverse [NT]. The fold change in expression of the gene was calculated using the 2^-ΔΔCt method with GAPDH as the internal control.

[7] = system: pS2, cathepsin D and CDC2 protein; assay: Western blotting of oestrogen-responsive gene products in MCF7 cells; assay type: cell-based, human; conditions: MCF7, 24 h, 1 nM E2; 12 and 6 μM
Method: MCF7 cells were serum-starved in phenol red–free RPMI 1640 containing 10% CSS for 5 days. […] After 24 hours, the medium was aspirated, and the cells were washed with ice-cold phosphate-buffered saline. Cells were lysed in 1× radioimmunoprecipitation assay buffer containing one tablet of cOmplete protease inhibitor cocktail (Roche Life Science, Indianapolis, IN, USA). Cell debris was pelleted by centrifugation at 15,000 g for 10 minutes at 4°C. The supernatants were collected and quantified using the BCA assay. In each case, 25 μg of protein was loaded onto 15% (v/v) SDS-PAGE gels, separated and transferred to polyvinylidene fluoride membrane. Membranes were incubated with pS2, cathepsin D and CDC2 antibodies or control α-actin antibody. Bound antibodies were detected using horseradish peroxidase–conjugated secondary antibodies. Chemiluminescence was detected with an Amersham ECL detection kit (GE Healthcare Life Sciences), and bands were visualised using the G:BOX imager (Syngene, Frederick, MD, USA).

[8] = target: T3, oestrogen receptor-alpha (ERα) (Homo sapiens, UniProt P03372); assay: Transiently transfected E2-responsive luciferase reporter in TamR3 cells; assay type: cell-based; set-up: endogenous in cells; conditions: TamR3, 1 nM E2; read-out: IC50, transcriptional inhibition of transiently transfected E2-responsive luciferase reporter
T3 sequence (P03372 1-595): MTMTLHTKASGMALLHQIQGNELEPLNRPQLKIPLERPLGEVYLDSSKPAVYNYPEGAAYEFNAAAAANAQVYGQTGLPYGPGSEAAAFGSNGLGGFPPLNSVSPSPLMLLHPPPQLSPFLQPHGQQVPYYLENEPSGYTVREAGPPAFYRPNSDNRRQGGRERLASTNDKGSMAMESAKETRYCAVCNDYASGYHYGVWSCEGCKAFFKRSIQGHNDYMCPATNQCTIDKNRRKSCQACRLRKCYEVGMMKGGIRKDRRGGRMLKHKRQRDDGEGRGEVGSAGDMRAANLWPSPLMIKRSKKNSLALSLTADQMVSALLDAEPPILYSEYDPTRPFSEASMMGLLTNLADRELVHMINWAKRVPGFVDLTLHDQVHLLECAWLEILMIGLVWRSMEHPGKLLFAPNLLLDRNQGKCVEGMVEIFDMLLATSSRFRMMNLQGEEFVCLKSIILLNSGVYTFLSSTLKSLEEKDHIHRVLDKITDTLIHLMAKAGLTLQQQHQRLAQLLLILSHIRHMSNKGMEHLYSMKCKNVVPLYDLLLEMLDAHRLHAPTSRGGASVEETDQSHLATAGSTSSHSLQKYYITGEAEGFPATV
Method: (§2) For transient transfection, we used pGL2.TATA.Inr.luc plasmid, which contains three copies of vitellogenin oestrogen response element (ERE) upstream of the TATA promoter (3X ERE TATA luc; Addgene plasmid 11354). This is the same plasmid used to construct pGL2.TATA.Inr.luc.neo, used to create the stable cell line T47D-KBluc.
(§3) TamR3 and TamR6 cells were grown in phenol red–free RPMI 1640 supplemented with 10% CSS and 1 μM tamoxifen. The cells were seeded on a 96-well plate (2 × 10^4 cells/well). After 24 hours, the cells were cotransfected with 50 ng each of the ERα-responsive luciferase plasmid and a constitutive Renilla reporter (to normalise for variations in transfection efficiency) using TransIT-2020 reagent (Mirus Bio, Madison, WI, USA). […] The compounds were added in a twofold dilution ranging from 0.1 to 50 μM. […] The medium contained 0.1% (v/v) ethanol and 0.1% (v/v) DMSO. Twenty-four hours after treatment, the medium was aspirated and the cells were lysed by adding 50 μl of 1× passive lysis buffer (Promega). Luciferase activities were assayed using the Dual-Luciferase Reporter Assay System (Promega).

[9] = target: T3, oestrogen receptor-alpha (ERα); assay: Transiently transfected E2-responsive luciferase reporter in TamR6 cells; assay type: cell-based; set-up: endogenous in cells; conditions: TamR6, 1 nM E2; read-out: IC50, transcriptional inhibition of transiently transfected E2-responsive luciferase reporter
Method: as §2, §3

[10] = target: T3, oestrogen receptor-alpha (ERα); assay: Luciferase oestrogen receptor-alpha transcriptional assay in T47D-KBluc cells; assay type: cell-based; set-up: endogenous in cells; host or cells: T47D-KBluc
Method: ERα-positive T47D-KBluc human BCa cells were grown in phenol red–free RPMI 1640 supplemented with 10% CSS for 5 days. The cells were seeded on a 96-well plate (2 × 10^4 cells/well). […] The test compounds were screened at two concentrations: 12 μM and 30 μM. […] The medium contained 0.1% (v/v) ethanol and 0.1% (v/v) DMSO. Twenty-four hours after treatment, the medium was aspirated and the cells were lysed by adding 50 μl of 1× passive lysis buffer (Promega, Madison, WI, USA). The plates were placed on a shaker at room temperature for 15 minutes and then subjected to two freeze–thaw cycles to help lyse the cells. Next, 20 μl of the lysate from each treatment was transferred onto a white, 96-well, flat-bottomed plate (Corning Life Sciences, Corning, NY, USA), and the luminescent signal was measured after adding 50 μl of the luciferase assay reagent (Promega) on a TECAN M200 PRO microplate reader (Tecan, Männedorf, Switzerland). Differences in growth were normalised against total protein concentration, which was measured by bicinchoninic acid (BCA) assay.

[11] = target: T4, biotinylated oestrogen receptor-alpha ligand-binding domain (bERα LBD) (human, UniProt P03372 302-552, biotin on the AviTag); assay: BLI; Octet RED; bERα LBD bound to Super Streptavidin Sensors; 20 mM Tris pH 7.5, 500 mM NaCl, 0.2 mM TCEP, 0.02 mM E2, 5% glycerol, 5% DMSO; PGC-1α peptide in solution as positive control; conditions: both partners purified
T4 construct: Assay buffer held 0.02 mM E2
T4 sequence (looked up): T2 sequence (P03372 302-552)

Question: With CCOc1cc(Br)cc(/C=N/NC(=O)c2ccc3c(c2)OCCO3)c1O [VPC-16230] as the molecule, how does the IC50 ([1]; TR-FRET, read-out: IC50, displacement of PGC-1α peptide from the AF2 site) read?
Answer: 2.98 µM

Question: And the “Shift of dose-response curve with increasing fluorescein-PGC-1α” value ([1]; fluorescein-PGC-1α 250, 500, 1000 nM, compounds 0.05 to 400 μM)?
Answer: rightward shift

Question: What about the “Binding to ERα LBD by BLI” value [2] of the same molecule?
Answer: direct and reversible interaction

Question: What about the IC50 [3] of the same molecule?
Answer: 7.8 µM

Question: And the IC50 ([4]; TamR3, 96 h, 1 nM E2, read-out: IC50, growth inhibition)?
Answer: 3.4 µM

Question: What about the IC50 ([5]; TamR6, 96 h, 1 nM E2, read-out: IC50, growth inhibition) of the same molecule?
Answer: 6.3 µM

Question: What about the “mRNA levels of pS2, cathepsin D and CDC2” value ([6]; in the absence of E2, 12, 6 and 3 μM) of the same molecule?
Answer: did not significantly inhibit; also recorded: did not significantly decrease

Question: What about the “mRNA levels of pS2, cathepsin D and CDC2” value ([6]; in the presence of 1 nM E2, 12 and 6 μM) of the same molecule?
Answer: considerably reduced; also recorded: significantly decreased

Question: What about the “Protein levels of pS2, cathepsin D and CDC2” value [7] of the same molecule?
Answer: decreased

Question: What about the IC50 [8] of the same molecule?
Answer: 4.7 µM

Question: What about the IC50 [9] of the same molecule?
Answer: 4.7 µM

Question: What about the IC50 ([10]; T47D-KBluc cells, 1 nM E2, 24 h, read-out: IC50, inhibition of ERα transcriptional activity (luciferase reporter)) of the same molecule?
Answer: 5.81 µM and 5.8 µM

Question: And the “Shift of the IC50 curve in the presence of higher concentrations of E2” value ([10]; T47D-KBluc, E2 1, 10, 50, 100 nM)?
Answer: did not show any significant shift

Question: What about the IC50 ([10]; read-out: IC50, luciferase assay at varied E2, T47D-KBluc, E2 1 nM) of the same molecule?
Answer: 6.1 µM

Question: And the IC50 ([10]; read-out: IC50, luciferase assay at varied E2, T47D-KBluc, E2 100 nM)?
Answer: 6.5 µM

Question: For CC/C(=C(\c1ccccc1)c1ccc(OCCN(C)C)cc1)c1ccccc1 [tamoxifen, reference compound], which “Growth in the presence of 1 μM tamoxifen” value ([4]; TamR3, 1 μM in the medium) is on record?
Answer: not affected

Question: And the “Growth in the presence of 1 μM tamoxifen” value ([5]; TamR6, 1 μM in the medium)?
Answer: not affected

Question: “cold PGC-1α peptide: Cold PGC-1α coactivator peptide (EAEEPSLLKKLLLAPANTQ), known AF2-interacting control [reference compound]” was tested. Which “FRET signal with increasing concentration of cold peptide” value ([1]; 1.8 to 50 μM) did it give?
Answer: dose-dependent decrease

Question: What about the “Binding to ERα LBD by BLI” value [2] of the same molecule?
Answer: direct and reversible interaction

B1: Cold peroxisome proliferator-activated receptor gamma, coactivator 1-alpha (PGC-1α) peptide (peptide)
peptide: EAEEPSLLKKLLLAPANTQ
notes: also called cold PGC-1α peptide; cold PGC-1α; source: synthetic peptide (Elim Biopharmaceuticals)
Question: Does B1 bind [11]?
Answer: binds
